Experiments:
Format in all cases: in vivo
mice = experiment: Mortality in mice exposed to 10% colitis-inducing dextran sulfate (Example 3); settings: 10% dextran sulfate in drinking water, 2.5 μg per injection s.c. twice per day, after 9 days; saline group 3 of 10
Protocol: Mice were also treated with 2 subcutaneous injections per day (0.5 ml) of either saline, or [GLY^2]hGLP-2, 2.5 μg per injection. After 9 days, the experiment was stopped.

Female CD1 mice [1] = experiment: 5% dextran sulfate induced ulcerative colitis model in mice (Example 2)
From the text: This experiment was designed to test the activity of GLP-2 in ameliorating disease symptoms in an animal model of colitis. A 5% dextran sulfate solution was used to induce ulcerative colitis in test mice (Okayasu et al., 1990, 98:694-702).
Forty female CD1 mice (six-weeks old and approximately 25 g, obtained from Charles River) were used in the experiment. On day 1, the mice were weighed using a Mettler PJ300 scale and randomly allocated to 1 of eight treatment groups. The groups, each consisting of 5 mice housed together, were treated as follows:
These two groups were fed normal drinking water.
Group 1) Ten days of injections (PBS), day 7 to day 17, animals sacrificed day 17.
Group 2) Ten days of injections human (Gly 2) GLP-2 (2.5 μg bid), day 7 to day 17, animals sacrificed day 17.
Groups 3 and 4—Test Group
Drinking water given to these groups contained 5% Dextran sulfate (DS).
Group 3) DS given from day 7 to day 17, PBS injections given from day 7 to day 17, animals sacrificed day 17.
Group 4) DS given from day 7 to day 17, human[Gly^2] GLP-2 (2.5 μg bid) injections given day 7 to day 17, animals sacrificed day 17.
Groups 5 and 6—Test Group
Drinking water contained 5% Dextran sulfate day 2 to day 9, followed by 4 days of normal drinking water. Ten days of injections were started day 4. […]
Dextran sulfate (USB, Cleveland, Ohio, MW 40,000-50,000) was dissolved into double distilled water, and placed into the water bottles. Water bottles were topped up daily. GLP-2 peptide was reconstituted and aliquoted on the day prior to the first day of injection and kept in a −20 C. freezer. Human [Gly^2]GLP-2 (5 mg/mL) was reconstituted in PBS. One microliter of 5N NaOH was required to dissolve the peptide in a volume of 1 ml. The injection volume of 0.5 ml was constant throughout the experiment using ½ cc U-100 Insulin Syringes Becton Dickinson and Company, NJ). Control mice (cage 1) received the same volume (0.5 ml) of phosphate buffered saline (PBS—137 mM NaCl, 2.7 mM KCl, 4.3 mM Na2HPO4.7H2O, 1.4 mM KH2PO4, pH 7.3).
Subcutaneous injections in the right hind quarter began on various days depending on the treatment conditions given above. All injections were twice a day, at 8 am and 6 pm. Mice in cages 1 and 2 were fasted on the day prior to sacrifice. Body weight measurements were made on day 1, day 7, day 12 and the day of sacrifice. The weight and length of the large intestine of each animal was measured after sacrifice.

Female CD1 mice [2] = experiment: Effect of GLP-2 on small and large intestinal mass and protein content in mice (Example 1); settings: 2.5 μg twice daily subcutaneously for 10 days
Protocol: In this experiment, the effect of GLP-2 on both small and large intestinal mass, as well as the relative contribution of water to the increment in intestine weight, was examined.
Female CD1 mice (6 weeks old) were treated with rat GLP-2, 2.5 μg twice daily (subcutaneously) for 10 days. Following treatment, mice were fasted 24 hours, anesthetized with CO2 and sacrificed. The small and large intestine was removed from the peritoneal cavity (from pylorus to cecum), cleaned, weighed and measured. For comparative purposes, 2 cm segments of proximal jejunum, ileum and colon were obtained from each animal from the identical anatomical positions (as measured from the pylorus and cecum) and analyzed for protein content, wet weight and dry weight (expressed as mean±S.E.M in mg/2 cm segment).
For protein content, two 2 cm segments from the proximal jejunum, ileum and colon were removed, placed in 13 ml tubes containing 2 ml of PBS, homogenized for 20 seconds in a Brinkmann Homogenizer and placed on ice. The tubes were centrifuged for 5 min. at 1000 g and 100 μl aliquots of supernatant homogenate removed for determination of protein content using the modified Bradford method.
To measure wet and dry weight, 2 cm intestinal segments were weighed, placed in culture tubes, reweighed, then freeze-dried overnight in a Fast-Freeze flask (Labconco) and reweighed.

[3] = 5% DS day 7 to day 17, 2.5 μg bid s.c. day 7 to day 17, group 4 vs group 3 (PBS)
[4] = normal drinking water, 2.5 μg bid s.c. for ten days, group 2 vs group 1 (PBS)
[5] = 2 cm segment, vs PBS-treated mice, p<0.05

Substance | survival (mice) | body weight through the course of the experiment (Female CD1 mice [1]; [3]) | large intestine weight at sacrifice (Female CD1 mice [1]; [3]) | large intestine length during experimentally induced colitis (Female CD1 mice [1]; 5% DS day 7 to day 17, 2.5 μg bid s.c., group 4 vs group 3 (PBS)) | morbidity, dehydration and reduction in mass of the large intestine caused by induced colitis (Female CD1 mice [1]; agonist given at the same time as 5% DS, day 7 to day 17, group 4 vs group 3) | large intestine length (Female CD1 mice [1]; [4]) | post-treatment large intestinal mass (Female CD1 mice [1]; [4]) | dry weight of intestinal segments from the proximal jejunum (Female CD1 mice [2]; [5]) | wet weight of intestinal segments from the proximal jejunum (Female CD1 mice [2]; [5]) | weights of the segments obtained from the colon (Female CD1 mice [2]; 2 cm segment, wet and dry weight) | protein content in the colon (Female CD1 mice [2]; compared to PBS-treated mice) | protein content in the jejunum (Female CD1 mice [2]; compared to PBS-treated mice)
[Gly^2]hGLP-2: human GLP-2 wherein the alanine at position 2 is replaced by a glycine; DPP-IV resistant analog (HGDGSFSDEMNTILDNLAARDFINWLIQTKITD; Glucagon-like peptide 2; UniProt P01275 146-178, looked up, variant A2G) | 7 of 10 | maintain body weight better | significantly heavier large intestines | also exhibited, although to a lesser degree | ameliorates the severe morbidity, dehydration, and reduction in mass of the large intestine | significant increase in large intestine length | causes an increase in large intestinal mass |  |  |  |  | 
rat GLP-2: rat GLP-2, 33 amino acid peptide having the sequence SEQ ID NO: 2; used in Example 1 (HADGSFSDEMNTILDNLATRDFINWLIQTKITD; listed as Rattus sp.) |  |  |  |  |  |  |  | significantly increased | significantly increased | slightly, but consistently, increased | statistically significant increase | statistically significant increase

Reference: US8603976B2, “Methods of enhancing functioning of the large intestine” (1149336 Ontario, Inc., priority 1997, dated 2013)
